# Data taken from patent US9113629B2, “4-amino-6-(4-substituted-phenyl)-picolinates and 6-amino-2-(4-substituted-phenyl)-pyrimidine-4-carboxylates and their use as herbicides” (DOW AGROSCIENCES LLC, priority 2013, dated 2015).
# Like-named read-outs stand apart in the source and are kept apart here.
# Experiments:
# [1] = system: Key Broadleaf Weed and Crop Species; experiment: Post-emergent Test II herbicidal activity (Table 5); assay type: in vivo; details: post-emergence, 336 h, 14 days after application; for pest or weed control at 70 g/ha: application rate 70 g ai/ha; for pest or weed control at 140 g/ha: application rate 140 g ai/ha
# Summary of the method: (§1)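 Test species were raised 7–21 d under greenhouse conditions until reaching the first or second true leaf, sprayed with formulated compound at 187 L/ha, and kept subirrigated to avoid wash-off. Fourteen days later, damage was rated visually on a 0–100% scale against untreated plants.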
# [2] = system: Key Grass and Sedge Weeds as well as Grass Crops; experiment: Post-emergent Test II herbicidal activity (Table 6); assay type: in vivo; details: post-emergence, 336 h; for pest or weed control at 70 g/ha: application rate 70 g ai/ha; for pest or weed control at 140 g/ha: application rate 140 g ai/ha
# Summary of the method: as §1
# [3] = ABUTH: velvetleaf (Abutilon theophrasti), read-out: Visual Growth Reduction (%) 14 Days After Application, ABUTH
# [4] = AMARE: redroot pigweed (Amaranthus retroflexus), read-out: Visual Growth Reduction (%) 14 Days After Application, AMARE
# [5] = BRSNN: oilseed-rape, canola (Brassica napus), read-out: Visual Growth Reduction (%) 14 Days After Application, BRSNN
# [6] = CHEAL: lambsquarters (Chenopodium album), read-out: Visual Growth Reduction (%) 14 Days After Application, CHEAL
# [7] = EPHHL: wild poinsettia (Euphorbia heterophylla), read-out: Visual Growth Reduction (%) 14 Days After Application, EPHHL
# [8] = HELAN: sunflower (Helianthus annuus), read-out: Visual Growth Reduction (%) 14 Days After Application, HELAN
# [9] = VIOTR: wild pansy (Viola tricolor), read-out: Visual Growth Reduction (%) 14 Days After Application, VIOTR
# [10] = Triticum aestivum, TRZSS (wheat), read-out: Visual Growth Reduction (%) 14 Days After Application, TRZSS
# [11] = CYPES: yellow nutsedge (Cyperus esculentus), read-out: Visual Growth Reduction (%) 14 Days After Application, CYPES
# [12] = DIGSA: crabgrass (Digitaria sanguinalis), read-out: Visual Growth Reduction (%) 14 Days After Application, DIGSA
# [13] = ECHCG: barnyardgrass (Echinochloa crus-galli), read-out: Visual Growth Reduction (%) 14 Days After Application, ECHCG
# [14] = ORYSA: rice (Oryza sativa), read-out: Visual Growth Reduction (%) 14 Days After Application, ORYSA
# [15] = SETFA: giant foxtail (Setaria faberi), read-out: Visual Growth Reduction (%) 14 Days After Application, SETFA
# [16] = SORVU: grain sorghum (Sorghum vulgare), read-out: Visual Growth Reduction (%) 14 Days After Application, SORVU
# [17] = ZEAMX: maize, corn (Zea mays), read-out: Visual Growth Reduction (%) 14 Days After Application, ZEAMX
compound,measurement,setting,value
C#Cc1ccc(-c2nc(N)c(OC)c(C(=O)O)n2)c(F)c1F [Compound 154],pest or weed control at 70 g/ha,[1]; [3],0 to 29%
same,pest or weed control at 140 g/ha,[1]; [3],45 to 59%
same,pest or weed control at 70 g/ha,[1]; [4],0 to 29%
same,pest or weed control at 140 g/ha,[1]; [4],0 to 29%
same,pest or weed control at 70 g/ha,[1]; [5],0 to 29%
same,pest or weed control at 140 g/ha,[1]; [5],60 to 74%
same,pest or weed control at 70 g/ha,[1]; [6],0 to 29%
same,pest or weed control at 140 g/ha,[1]; [6],45 to 59%
same,pest or weed control at 70 g/ha,[1]; [7],95 to 100%
same,pest or weed control at 140 g/ha,[1]; [7],95 to 100%
same,pest or weed control at 70 g/ha,[1]; [8],75 to 84%
same,pest or weed control at 140 g/ha,[1]; [8],75 to 84%
same,pest or weed control at 70 g/ha,[1]; [9],0 to 29%
same,pest or weed control at 140 g/ha,[1]; [9],0 to 29%
same,pest or weed control at 70 g/ha,[2]; [10],0 to 29%
same,pest or weed control at 140 g/ha,[2]; [10],0 to 29%
same,pest or weed control at 70 g/ha,[2]; [11],0 to 29%
same,pest or weed control at 140 g/ha,[2]; [11],0 to 29%
same,pest or weed control at 70 g/ha,[2]; [12],0 to 29%
same,pest or weed control at 140 g/ha,[2]; [12],0 to 29%
same,pest or weed control at 70 g/ha,[2]; [13],45 to 59%
same,pest or weed control at 140 g/ha,[2]; [13],45 to 59%
same,pest or weed control at 70 g/ha,[2]; [14],0 to 29%
same,pest or weed control at 140 g/ha,[2]; [14],0 to 29%
same,pest or weed control at 70 g/ha,[2]; [15],0 to 29%
same,pest or weed control at 140 g/ha,[2]; [15],0 to 29%
same,pest or weed control at 70 g/ha,[2]; [16],0 to 29%
same,pest or weed control at 140 g/ha,[2]; [16],0 to 29%
same,pest or weed control at 70 g/ha,[2]; [17],0 to 29%
same,pest or weed control at 140 g/ha,[2]; [17],0 to 29%
same,melting point,,142 to 144 °C
